The results in this text go back to US6472381B1, “Method of treating psoriasis” (Biomas Inc., priority 2001, dated 2002).

The subject of the assay is psoriasis. As to the kind of experiment: Separate tests of the single agents for treating psoriasis. Format: in vivo, human. To be noted: agent used alone. The source says: Salicylic acid alone was ineffective.

As to `Cl[Te]1(Cl)(Cl)OCCO1.N` [ammonium trichloro (dioxoethylene-O,O′) tellurate], the “efficacy for treating psoriasis” value is listed as “effective for treating psoriasis but worked very slowly”.
Regarding `O=C(O)c1ccccc1O` [Salicylic acid, salicylic acid], the “efficacy for treating psoriasis” value was “ineffective”.
